Test results: patent US5440041A, “Acetal or ketal substituted xanthine compounds” (Cell Therapeutics, Inc., priority 1994, dated 1995)
Read-outs that look alike come from different tables or passages of the source.

Tests used:
[1] = test system: VCAM; assay: Cell surface expression of VCAM in TNF-α-stimulated HUVEC (flow cytometry); type: cell-based, human; details: TNF-α (20 ng/ml) for 20 hrs; mean fluorescence intensity; FIG. 6
Description: Drug inhibitory activity can also be measured by determining levels of vascular cell adhesion molecule (VCAM) in stimulated cells. Early passage human umbilical vein endothelial cells (HUVEC) (obtained from commercial suppliers such as Cell Systems, Inc. or Clonetics) are cultured in media (e.g., Hepes buffered media, Cell Systems) containing 10% fetal bovine serum, and supplemented with a stimulating agent, such as fibroblast growth factor (acidic FGF, Cell Systems, Inc.) or TNF. The cells are plated into wells of a microliter plate (e.g., 5×10^4 per well) and allowed to incubate at 37° C. for 72 hrs. […] After 30 min on ice, the cells are washed twice and analyzed on a flow cytometer (Coulter Elite®) at appropriate emission and excitation wavelengths (e.g., for phycoerythrin use excitation at 488 nm and emission at […]).
The cells were stimulated with TNF-α(20 ng/ml) for 20 hrs and then stained for immunofluorescence using a monoclonal antibody recognizing VCAM, followed by a goat anti-mouse antibody conjugated to phycoerythrin. The cells were analyzed for antibody binding using flow cytometry.

[2] = test system: 293-EBNA cells; assay: Reporter gene expression (CMV promoter, secreted placental alkaline phosphatase) in tumor cells; type: cell-based; details: compared with CT1501R, CT1567 and CT1590; absorbance at 405 nm; FIG. 7
Description: FIG. 7 illustrates the effects of CT1590 (racemate N-(5,6-[…]) theobromine), CT1573, CT1567 and CT1501R (an alcohol-substituted xanthine) on cell proliferation as a measure of antitumor activity and the ability of each drug to inhibit gene expression in tumor cells. A specific plasmid construct employing a human CMV (cytomegalovirus) promoter directs the expression of a reporter gene (secreted human placental alkaline phosphatase) that was transformed into the tumor cell line 293-EBNA cells. The cells were treated with various concentrations of drug. Antitumor activity was measured in culture supernatants by expression of alkaline phasphatase reporter gene by absorbance at 405 nm of cell conditioned medium in the presence of substrate (e.g., ortho-nitrophenol phosphate) as described in Berger et al. (Gene 66:1-10, 1988).
This example illustrates the effects of CT1590 (racemate N-(5,6-ethylenedioxyhexyl) theobromine), CT1573, CT1567 and CT1501R (an alcohol-substituted xanthine) on cell proliferation as a measure of antitumor activity and the ability of each drug to inhibit gene expression in tumor cells. A specific plasmid construct employing a human CMV (cytomegalovirus) promoter directs the expression of a reporter gene (secreted human placental alkaline phosphatase) that was transformed into the tumor cell line 293-EBNA cells. […]

[3] = test system: adhesion of U937 cells to activated human umbilical vein endothelial cells (HUVEC); assay: Adhesion of U937 cells to TNF-activated HUVEC; type: cell-based; details: HUVEC activated with 20 ng/ml human TNF for 12 hours; drug one hour prior to TNF; FIG. 5
Description: Another assay measures the effects of drug to inhibit adhesion of U937 cells to TNF-activated HUVEC cells In this experiment, HUVEC cells are induced with human TNF-α (20 ng/ml) and drug at varying concentrations for 14-16 hrs. U937 cells (a human monocyte cell line) are incubated and labeled with BCECF (10 μg/ml), a fluorescent dye. The U937 cell preparation (2.5×10^4 cells per well) is layered on top of the activated HUVEC cells. The cells are reverse spun to remove partially adhering and nonadhering U937 cell. The adherent U937 cells are measured by fluorescence on a fluorescent plate reader.
This example illustrates the effect of CT1573 to inhibit adhesion of U937 cells to activated human umbilical vein endothelial cells (HUVEC). HUVEC cells (4000/well, seeded 72 hrs in advance) were activated with 20 ng/ml of human TNF for 12 hours. CT1573 was added to the samples one hour prior to adding TNF. U937 cells were preloaded with a fluorescent dye (BCECF) were added to the HUVEC cells in each well for 30 min, the cells washed twice with PBS and adhesion measured after washing. Adhesion was measured on a fluorescence plate reader. Background adhesion of U937 cells to non-activated HUVEC is shown as a dashed line.

[4] = test system: human stromal cells; assay: Stromal cell proliferation stimulated by PDGF; type: cell-based; details: for IC50: Homo sapiens; for inhibition of proliferation of human stromal cells stimulated with PDGF: in words
Description: Another assay for measuring activity of the inventive compounds involves determining PDGF (platelet derived growth factor) proliferative response using human-derived stromal cells. […] Two to three days later, the stromal cells are starved in serum-free media. Twenty four hours later, the cells are treated with a stimulating agent, such as PDGF-AA, PDGF-BB or basic FGF (fibroblast growth factor) with or without IL-1α or TNF, and tritiated thymidine. Cell proliferation is determined by liquid scintillation counting.
This assay is a model for restenosis and treatment of atherosclerosis and coronary artery disease. Stromal cells were starved in serum-free media for 24 hrs and then stimulated with PDGF-BB (50 ng/ml). The drugs were added at various concentrations one hour prior to PDGF stimulation. Tritiated thymidine was added for 24 hrs at the time of PDGF stimulation and proliferation determined by harvesting and counting the cells by liquid scintillation 24 hrs later.

[5] = U.S. Pat. Nos. 4,515,795 and 4,576,947; cited from earlier work
[6] = test system: polymorphonuclear leukocytes; details: in response to a stimulator of chemotaxis; U.S. Pat. No. 4,636,507; cited from earlier work
[7] = test system: PBMC (peripheral blood mononuclear cells); assay: Two-way mixed lymphocyte reaction (MLR); type: cell-based, human; details: FIG. 1, FIG. 8
Description: Various in vitro assays can be used to measure effects of the inventive compounds to modulate immune activity and have antitumor activity using a variety of cellular types. For example, a mixed lymphocyte reaction (MLR) provides a valuable screening tool to determine biological activity of each inventive compound. In the MLR, PBMCs (peripheral blood mononuclear cells) are obtained by drawing whole blood from healthy volunteers in a heparinized container and diluted with an equal volume of hanks balanced salt solution (HBSS). This mixture is layered on a sucrose density gradient, such as a Ficoll-Hypaque® gradient (specific gravity 1.08), and centrifuged at 1000×g for 25 minutes at room temperature or cooler. PBMC are obtained from a band at a plasma-Ficoll interface, separated and washed at least twice in a saline solution, such as HBSS. Contaminating red cells are lysed, such as by ACK lysis for 10 min at 37° C., and the PBMCs are washed twice in HBSS. The pellet of purified PBMCs is resuspended in complete medium, such as RPMI 1640 plus 20% human inactivated serum. Proliferative response of PBMC to allogeneic stimulation is determined in a two-way MLR performed in a 96-well microtiter plate. […] At the conclusion of the incubation tritiated thymidine is added (for example, 1 μCi/well of 40 to 60 Ci/mmole) and proliferation determined by liquid scintillation counting. […]

[8] = test system: thymocyte; assay: Thymocyte proliferation stimulated by ConA and IL-2; type: cell-based, mice (Balb/C); details: drug added two hours prior to activation; FIG. 3
Description: (§1) A thymocyte costimulator assay is conducted to evaluate the inventive compounds to inhibit activation and proliferation of thymocytes caused by stimulation with Con A and interleukin-1 (IL-1), or interleukin-2 (IL-2). Thymuses are obtained from mice (e.g., female Balb/C mice) and the thymuses are removed and dissociated into culture media (e.g., RPMI 1640 without serum supplementation). The dissociated thymus tissue and cell suspension is transferred to centrifuge tubes and allowed to settle, washed with HBSS and resuspended in serum-supplemented culture media (e.g., RPMI 1640 with 10% fetal calf serum). Any contaminating red cells are lysed, and viable cells are resuspended and counted. Thymocytes are plated (e.g., 96-well plates at a density of 2×10^5 cells/well) and a stimulating agent, such as Con A, IL-1 (e.g., IL-1α) or IL-2 is added to the well. The cells are incubated for 4 days at 37° C. On the fourth day, the cells are pulsed with tritiated thymidine and cell proliferation determined. […]
(§2) Thymuses were obtained from normal, female Balb/C mice, dissociated, and plated into 96-well plates at a density of 2×10^5 cells/well. ConA and IL-1α were added to the wells and the cells were incubated for 4 days at 37° C. […] The cells were harvested and incorporated tritiated thymidine was determined in a liquid scintillation counter. […]

[9] = test system: thymocyte; assay: Thymocyte proliferation stimulated by ConA and IL-1α; type: cell-based, mice (Balb/C); details: drug added two hours prior to activation; FIG. 2
Description: as §1, §2

[10] = PDGF BB and IL-1α, FIG. 4, FIG. 9, read-out: IC50 to inhibit stromal cell proliferation stimulated by PDGF BB and IL-1α

SMILES | inhibition of cell surface expression of VCAM in HUVEC cells [1] | IC50 [4, 10] [µM] | inhibition of proliferation of human stromal cells stimulated with PDGF [4] | activity in mixed lymphocyte reaction (proliferative response of PBMC to allogeneic stimulation) [7] | further results
Cn1cnc2c1c(=O)n(CCCCCCCCC1COCO1)c(=O)n2C (racemic) [CT1573, N-(9,10-methylenedioxydecyl)-3,7-dimethylxanthine] | inhibit cell surface expression of VCAM | < 100 | strongly inhibit proliferation | – | inhibition of gene expression in tumor cells (antitumor activity) [2]: strongly inhibited gene expression; inhibition of adhesion of U937 cells to activated HUVEC [3]: reduced adhesion in a dose-dependent manner; IC50 ([4]; 1 h, PDGF-BB (50 ng/ml), drug one hour prior to stimulation, FIG. 4, read-out: IC50 to inhibit stromal cell proliferation stimulated by PDGF BB): < 100 µM
CC(O)CCCCn1c(=O)c2c(ncn2C)n(C)c1=O (stereo not drawn) [M1, 1-(5-hydroxyhexyl)-3,7-dimethylxanthine] | – | – | – | – | effect on cerebral blood flow [5]: increasing cerebral blood flow; effect on chemotaxis in polymorphonuclear leukocytes [6]: stimulate chemotaxis
Cn1cnc2c1c(=O)n(CCCCC1COCO1)c(=O)n2C (racemic) [CT1590, N-(5,6-methylenedioxyhexyl)-3,7-dimethylxanthine] | – | ~100 | strongly inhibit proliferation | showed activity | –
Cn1cnc2c1c(=O)n(CCCCCC1OCCO1)c(=O)n2C [CT1567] | inhibit cell surface expression of VCAM | – | – | showed activity | inhibition of thymocyte proliferation stimulated by ConA and IL-2 [8]: inhibited thymocyte proliferation at the highest dose tested; inhibition of thymocyte proliferation stimulated by ConA and IL-1α [9]: inhibited thymocyte proliferation in a dose-response manner
